Assay results from patent US20180362580A1, “CRYSTALLINE AND AMORPHOUS FORMS OF CARFILZOMIB” (Mylan Laboratories Limited, priority 2015, published 2018).
Entries after “also recorded” stand apart in the source; their conditions may differ.

Experiment: Long term storage stability of the crystalline form, measured by PXRD
Format: physicochemical
Details: stored at 2° C. to 8° C. for one year; solid form checked by PXRD
Protocol: The polymorphs disclosed herein may be characterized by their X-ray powder diffraction (PXRD) patterns. Thus, samples of carfilzomib prepared by processes disclosed herein, including crystalline carfilzomib form M1 and amorphous carfilzomib, were analyzed by PXRD on a BRUKER D-8 DISCOVER powder diffractometer equipped with goniometer of θ/2θ configuration and LYNX EYE detector. The Cu-anode X-ray tube was operated at 40 kV and 30 mA. The experiments were conducted over the 2θ range of 2.0°-50.0°, 0.030° step size, and 0.4 seconds step time.
In some samples, individual impurities were present at levels less than 0.1%.

CC(C)C[C@H](NC(=O)[C@H](CCc1ccccc1)NC(=O)CN1CCOCC1)C(=O)N[C@@H](Cc1ccccc1)C(=O)N[C@@H](CC(C)C)C(=O)[C@@]1(C)CO1 [crystalline carfilzomib form M1, (2S)-N-((S)-1-((S)-4-methyl-1-((R)-2-methyloxiran-2-yl)-1-oxopentan-2-ylcarbamoyl)-2-phenylethyl)-2-((S)-2-(2-morpholinoacetamido)-4-phenylbutanamido)-4-methylpentanamide]
stability (measured by PXRD): exhibited stability; also recorded: stable
